Earlier results as cited in patent publication US20040167132A1, “Methods of treating conditions associted with an Edg-2 receptor” (priority 2003, published 2004).
pKd: −log10 of the molar value. Counter-ions that a name gives are not always drawn. Each block holds one compound with its values, some of them ahead of it.

Columns and labels:
[1] = molecular target: Adrenergic β; conditions: radioligand; Wistar rat brain; historical value
[2] = molecular target: Adrenergic α1 non-selective
[3] = molecular target: Serotonin 5-HT1, non-selective; conditions: radioligand; Wistar rat cerebral cortex; historical value
[4] = molecular target: T1, Angiotensin AT2 (Homo sapiens, UniProt P50052); conditions: radioligand; Human recombinant Hela cells; historical value
T1 construct: expressed in transfected cells; host or cells: HeLa cells
T1 sequence (P50052 1-363): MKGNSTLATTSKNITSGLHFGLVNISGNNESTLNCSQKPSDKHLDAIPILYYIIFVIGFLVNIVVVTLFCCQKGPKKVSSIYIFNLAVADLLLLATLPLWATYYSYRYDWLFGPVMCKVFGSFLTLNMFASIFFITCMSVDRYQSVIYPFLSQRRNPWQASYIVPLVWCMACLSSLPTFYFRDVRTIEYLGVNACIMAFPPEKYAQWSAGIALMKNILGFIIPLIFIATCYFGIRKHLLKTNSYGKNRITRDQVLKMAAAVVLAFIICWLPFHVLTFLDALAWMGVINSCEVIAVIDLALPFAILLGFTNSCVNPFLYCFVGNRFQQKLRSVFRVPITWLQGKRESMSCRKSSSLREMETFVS

pKd [1]: 9.30
Compound: CCCc1ccccc1OCC(O)CNC(C)C (stereo not shown) [^3H Dihydroaplenolol, Dihydroaplenolol]

Compound: COc1cc2nc(N3CCN(C(=O)c4ccco4)CC3)nc(N)c2cc1OC [^3H Prazosin, Prazosin]
pKd [2]: 9.54

Compound: NCCc1c[nH]c2ccc(O)cc12 [^3H Serotonin (5-HT) Trifluoroacetate, Serotonin (5-HT) Trifluoroacetate]
pKd [3]: 9.21

pKd [4]: 10.92
Compound: CGP-42112A [^125I CGP-42112A]
